According to US8741940B2, “Microbicidal composition” (Rohm and Haas Company, priority 2005, dated 2014):
Where “and” joins values, the source holds several entries; their conditions need not be identical. Equal values may be shown once. Read-outs that look alike come from different tables or passages of the source.

Key:
Format in all cases: cell-based
[1] = test system: Escherichia coli (E. coli—ATCC #8739); assay: Synergy test, microtiter plate high resolution MIC assay, bacterium in M9GY medium; design: Qa (First Component A) / Qb (Second Component B): unit: ppm; settings: for MIC of the component acting alone (QA / QB): E. coli 8739, M9GY, 30° C.
Procedure, shortened: (§1)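 High-resolution microtiter MICs of BBIT or MBIT (component A) combined with a second microbicide (B), dilutions spanning 2–10,000 ppm active. E. coli ~5×10^6/mL in M9GY at 30 °C; C. albicans and A. niger 5×10^5/mL in PDB. Synergy index = Qa/QA + Qb/QB; >1 antagonism.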

[2] = test system: Candida albicans (C. albicans—ATCC 10231); assay: Synergy test, microtiter plate high resolution MIC assay, yeast in PDB medium; design: Qb (Second Component B) / Qa (First Component A): unit: ppm; settings: for MIC of the component acting alone (QA / QB): C. albicans 10231, PDB, 25° C.
Procedure, shortened: as §1

[3] = test system: Aspergillus niger (A. niger—ATCC 16404); assay: Synergy test, microtiter plate high resolution MIC assay, mold in PDB medium; design: Qb (Second Component B) / Qa (First Component A): unit: ppm
Procedure, shortened: as §1

[4] = A=MBIT, B=BBIT, E. coli 8739 - M9GY, 24 hours
[5] = A=MBIT, B=BBIT, C. albicans 10231 - PDB, 48 hours
[6] = A=MBIT, B=BBIT, A. niger 16404 - PDB, 4 days

For `CCCCn1sc2ccccc2c1=O` [BBIT, N-(n-butyl)-1,2-benzisothiazolin-3-one], the “Qa (First Component A)” value [1] was 200, the “SI (synergy index)” value [1] was 1.00 and the “Qb (Second Component B)” value [1, 4] was 100. For the same molecule, the “SI (synergy index)” value [1, 4] was 1.00, the “MIC of the component acting alone (QA / QB)” value (from here on “MIC … (QA / QB)”) ([1]; 24 hours) was 200 ppm and 100 ppm and the “MIC … (QA / QB)” value ([1]; 48 hours) was 100 ppm. For the same molecule, the “MIC … (QA / QB)” value ([1]; 72 hours) was 100 ppm, the SI ([1]; E. coli 8739 - M9GY, 24 hours, BBIT + hexylene glycol) was 1.00 and the “Qa (First Component A = BBIT)” value ([1]; E. coli 8739 - M9GY, 24 hours, BBIT alone (Qb 0) or in mixture with hexylene glycol) was 100. For the same molecule, the SI ([1]; E. coli 8739 - M9GY, 24 hours, BBIT with Pentylene glycol) was 1.00, the SI ([1]; E. coli 8739 - M9GY, 24 hours, BBIT with Potassium sorbate) was 1.00 and the SI ([1]; E. coli 8739 - M9GY, 24 hours, BBIT with Propylparaben) was 1.00. It also gave an SI ([1]; E. coli 8739 - M9GY, 24 hours, BBIT with SDHA) of 1.00, an SI ([1]; E. coli 8739 - M9GY, 24 hours, BBIT with Sodium benzoate) of 1.00 and an SI ([1]; E. coli 8739 - M9GY, 48 hours, BBIT + DTBMA) of 1.00. The SI ([1]; E. coli 8739 - M9GY, 48 hours, BBIT + hexamidine diisethionate) was 1.00, the “Qa (First Component A = BBIT)” value ([1]; E. coli 8739 - M9GY, 48 hours, BBIT alone (Qb 0) or in mixture with DTBMA) was 100 and the “Qa (First Component A = BBIT)” value ([1]; E. coli 8739 - M9GY, 48 hours, BBIT alone (Qb 0) or in mixture with hexamidine diisethionate) was 6. For the same molecule, the SI ([1]; E. coli 8739 - M9GY, 48 hours, BBIT with Phospholipid EFA) was 1.00, the SI ([1]; E. coli 8739 - M9GY, 72 hours, BBIT + DMDMH) was 1.00 and the SI ([1]; E. coli 8739 - M9GY, 72 hours, BBIT + EDTA) was 1.00. The SI ([1]; E. coli 8739 - M9GY, 72 hours, BBIT + hexetidine) was 1.00, the “Qa (First Component A = BBIT)” value ([1]; E. coli 8739 - M9GY, 72 hours, BBIT alone (Qb 0) or in mixture with DMDMH) was 100 and the “Qa (First Component A = BBIT)” value ([1]; E. coli 8739 - M9GY, 72 hours, BBIT alone (Qb 0) or in mixture with EDTA) was 100. The “Qa (First Component A = BBIT)” value ([1]; E. coli 8739 - M9GY, 72 hours, BBIT alone (Qb 0) or in mixture with hexetidine) was 80, the SI ([1]; E. coli 8739 - M9GY, 72 hours, BBIT with Methylparaben) was 1.00 and the SI ([1]; E. coli 8739 - M9GY, 72 hours, BBIT with Phenoxyethanol) was 1.00. The SI ([1]; E. coli 8739 - M9GY, 72 hours, BBIT with Phospholipid PTC) was 1.00, the SI ([1]; E. coli 8739 - M9GY, 72 hours, BBIT with Quaternium-15) was 1.00 and the “Qa (First Component A)” value [2] was 10. For the same molecule, the “SI (synergy index)” value [2] was 1.00, the “Qb (Second Component B)” value [2, 5] was 6 and the “SI (synergy index)” value [2, 5] was 1.00. The “MIC … (QA / QB)” value ([2]; 24 hours) was 7.5 ppm and 6 ppm and 8 ppm, the “MIC … (QA / QB)” value ([2]; 48 hours) was 10 ppm and 7.5 ppm and 8 ppm and the SI ([2]; C. albicans 10231 - PDB, 24 hours, BBIT + DMDMH) was 1.00. For the same molecule, the SI ([2]; C. albicans 10231 - PDB, 24 hours, BBIT + DTBMA) was 1.00, the SI ([2]; C. albicans 10231 - PDB, 24 hours, BBIT + EDTA) was 1.00 and the SI ([2]; C. albicans 10231 - PDB, 24 hours, BBIT + hexamidine diisethionate) was 1.00. The SI ([2]; C. albicans 10231 - PDB, 24 hours, BBIT + hexylene glycol) was 1.00, the “Qa (First Component A = BBIT)” value ([2]; C. albicans 10231 - PDB, 24 hours, BBIT alone (Qb 0) or in mixture with DMDMH) was 7.5 and the “Qa (First Component A = BBIT)” value ([2]; C. albicans 10231 - PDB, 24 hours, BBIT alone (Qb 0) or in mixture with DTBMA) was 15. The “Qa (First Component A = BBIT)” value ([2]; C. albicans 10231 - PDB, 24 hours, BBIT alone (Qb 0) or in mixture with EDTA) was 7.5, the “Qa (First Component A = BBIT)” value ([2]; C. albicans 10231 - PDB, 24 hours, BBIT alone (Qb 0) or in mixture with hexamidine diisethionate) was 10 and the “Qa (First Component A = BBIT)” value ([2]; C. albicans 10231 - PDB, 24 hours, BBIT alone (Qb 0) or in mixture with hexylene glycol) was 10. For the same molecule, the SI ([2]; C. albicans 10231 - PDB, 24 hours, BBIT with Methylparaben) was 1.00, the SI ([2]; C. albicans 10231 - PDB, 24 hours, BBIT with Pentylene glycol) was 1.00 and the SI ([2]; C. albicans 10231 - PDB, 24 hours, BBIT with Phenoxyethanol) was 1.00. For the same molecule, the SI ([2]; C. albicans 10231 - PDB, 24 hours, BBIT with Phospholipid EFA) was 1.00, the SI ([2]; C. albicans 10231 - PDB, 24 hours, BBIT with Phospholipid PTC) was 1.00 and the SI ([2]; C. albicans 10231 - PDB, 24 hours, BBIT with Potassium sorbate) was 1.00. It also gave an SI ([2]; C. albicans 10231 - PDB, 24 hours, BBIT with Propylparaben) of 1.00, an SI ([2]; C. albicans 10231 - PDB, 24 hours, BBIT with Quaternium-15) of 1.00 and an SI ([2]; C. albicans 10231 - PDB, 24 hours, BBIT with SDHA) of 1.00. For the same molecule, the SI ([2]; C. albicans 10231 - PDB, 48 hours, BBIT with Sodium benzoate) was 1.00, the SI ([2]; C. albicans 10231 - PDB, 72 hours, BBIT + hexetidine) was 1.00 and the “Qa (First Component A = BBIT)” value ([2]; C. albicans 10231 - PDB, 72 hours, BBIT alone (Qb 0) or in mixture with hexetidine) was 15. The “Qa (First Component A)” value [3] was 40, the “SI (synergy index)” value [3] was 1.00 and the “MIC … (QA / QB)” value ([3]; A. niger 16404, PDB, 4 days, 25° C.) was 15 ppm. For the same molecule, the SI ([3]; A. niger 16404 - PDB, 3 days, BBIT + hexylene glycol) was 1.00, the “Qa (First Component A = BBIT)” value ([3]; A. niger 16404 - PDB, 3 days, BBIT alone (Qb 0) or in mixture with hexylene glycol) was 15 and the SI ([3]; A. niger 16404 - PDB, 3 days, BBIT with Methylparaben) was 1.00. For the same molecule, the SI ([3]; A. niger 16404 - PDB, 3 days, BBIT with Phospholipid PTC) was 1.00, the SI ([3]; A. niger 16404 - PDB, 3 days, BBIT with Potassium sorbate) was 1.00 and the SI ([3]; A. niger 16404 - PDB, 4 days, BBIT + hexetidine) was 1.00. The “Qa (First Component A = BBIT)” value ([3]; A. niger 16404 - PDB, 4 days, BBIT alone (Qb 0) or in mixture with hexetidine) was 20, the SI ([3]; A. niger 16404 - PDB, 4 days, BBIT with Pentylene glycol) was 1.00 and the SI ([3]; A. niger 16404 - PDB, 4 days, BBIT with Phospholipid EFA) was 1.00. The SI ([3]; A. niger 16404 - PDB, 4 days, BBIT with Quaternium-15) was 1.00, the SI ([3]; A. niger 16404 - PDB, 7 days, BBIT + DMDMH) was 1.00 and the SI ([3]; A. niger 16404 - PDB, 7 days, BBIT + DTBMA) was 1.00. For the same molecule, the SI ([3]; A. niger 16404 - PDB, 7 days, BBIT + EDTA) was 1.00, the “Qa (First Component A = BBIT)” value ([3]; A. niger 16404 - PDB, 7 days, BBIT alone (Qb 0) or in mixture with DMDMH) was 80 and the “Qa (First Component A = BBIT)” value ([3]; A. niger 16404 - PDB, 7 days, BBIT alone (Qb 0) or in mixture with DTBMA) was 40. The “Qa (First Component A = BBIT)” value ([3]; A. niger 16404 - PDB, 7 days, BBIT alone (Qb 0) or in mixture with EDTA) was 40, the SI ([3]; A. niger 16404 - PDB, 7 days, BBIT with Phenoxyethanol) was 1.00 and the SI ([3]; A. niger 16404 - PDB, 7 days, BBIT with Propylparaben) was 1.00. The SI ([3]; A. niger 16404 - PDB, 7 days, BBIT with SDHA) was 1.00, the SI ([3]; A. niger 16404 - PDB, 7 days, BBIT with Sodium benzoate) was 1.00 and the “Qb (Second Component B)” value [3, 6] was 40. The “SI (synergy index)” value [3, 6] was 1.00.
